Among the data in PubChem BioAssay (NCI) are TGI and GI50 values, retold here.

Common to all, as to experiment: growth of human tumour cells (NCI), 48 h
For assay [1], the system named is HCC-2998 colon.
Assay [2] has as its system OVCAR-8 ovarian.
Assay [3] concerns MOLT-4 leukemia.
Assay [4] concerns 786-0 renal.
The test system of assay [5] is SNB-19 CNS.
In assay [6] the test system is SK-OV-3 ovarian.
For assay [7], the system named is MALME-3M melanoma.
The test system of assay [8] is DU-145 prostate.
For assay [9], the system named is HCT-15 colon.
For assay [10], the system named is ACHN renal.

SMILES strings stand for the structures. Where “and” joins values, the source holds several entries; their conditions need not be identical. Identical values can stand only once.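 All cell lines were grown in 96-well plates and treated with compound for 48 hours. GI50 is the concentration that inhibits growth by half. TGI: concentration producing complete growth inhibition.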

As for `C=C(C)C1CC2(C)C(C)CC(OC(=O)/C(C)=C\C)CC2C(OC(=O)/C(C)=C\C)C1O` (stereo unspecified), the TGI was above 100 µM in assay [1]; above 100 µM in [2]; 60.3 µM in [3]; above 100 µM in [4]; above 100 µM in [5]; above 100 µM in assay [6]. For the same compound, the TGI in assay [7], in assay [8], in [9] and in [10] was above 100 µM throughout.

On to `COc1ccc2c(c1)C(=O)C(=O)c1cc(O)c(OC)c(OC)c1-2`, for which the TGI in [1] is 10.5 µM and 14.1 µM; in [2] it was 1.6 µM and 2.98 µM; in [3], 0.746 µM and 5.74 µM; in assay [4] it was 1.72 µM and 3.26 µM; in [5], 2.38 µM and 3.28 µM; in assay [6], 7.27 µM and 3.17 µM. The TGI in assay [7] was 1.53 µM and 2.46 µM; in assay [8], 1.75 µM and 3.12 µM; in assay [9] it was 1.78 µM and 3.53 µM; in assay [10], 1.59 µM and 3.38 µM. The GI50 in assay [2] was 1.62 µM; in assay [3], 2.38 µM; in assay [4] it was 1.85 µM; in assay [5], 1.85 µM; in assay [6], 1.79 µM; in assay [7], 1.22 µM. Further, the values for the GI50 in assay [8], in assay [9] and in assay [10] were 1.74 µM, 1.73 µM and 1.97 µM, respectively.

Turning to `OCC1OC(OCC(O)C(O)C(O)C(/C=N/Nc2ccccc2)=N/Nc2ccccc2)C(O)C(O)C1O` (stereo unspecified), the TGI in assay [1], in [2], in assay [3], in [4], in [5] and in [6] was above 100 µM each time. Moreover, the TGI in [7], in [8], in assay [9] and in assay [10] was above 100 µM throughout.

For `COc1cnc2c(c1)C(=O)c1c-2n(CCCN2CCC(O)CC2)c(=O)c2cc(F)ccc12`, the GI50 was 1.23 µM in [1]; 0.173 µM in assay [2]; 0.0445 µM in assay [3]; 0.211 µM in assay [4]; 0.175 µM in [5]; 0.22 µM in [6]. Besides, the results for the GI50 in [7], in [8] and in [10] were 0.298 µM, 0.174 µM and 0.0902 µM, respectively. Also, the TGI in [1] is 9.98 µM; in assay [2], 1.16 µM; in [3], 0.337 µM; in assay [4], 0.925 µM; in assay [5], 1.32 µM; in [6], 0.783 µM. The TGI in assay [7] worked out at 1.2 µM; in assay [8], 1.41 µM; in assay [10], 0.332 µM.

For the compound `CCN1C(NN)=NS(=O)(=O)c2ccccc21`, the TGI in [1], in assay [2], in assay [3], in assay [4], in [5] and in assay [6] was above 100 µM throughout. Moreover, the TGI in [8], in assay [9] and in assay [10] was above 100 µM each time.

Regarding `C=CC[P+](c1ccccc1)(c1ccccc1)c1ccccc1`, the GI50 in assay [1] is 3.19 µM; in assay [2], 3.25 µM; in assay [3] it was 5.07 µM; in assay [4] it was 27.6 µM; in assay [5] it was 4.1 µM; in assay [6] it was 19.2 µM. For the same compound, the GI50 in assay [8] is 7.33 µM; in assay [9] it was above 100 µM; in assay [10] it was above 100 µM. The TGI in assay [1], in [2], in assay [3], in [4], in assay [5] and in assay [6] was above 100 µM in each case. Moreover, the TGI in assay [8], in [9] and in [10] was above 100 µM in each case.

Regarding `Cc1cc(C2=NNC(=O)Cc3cc4c(cc32)OCCO4)cc(C)c1N`, the GI50 in assay [1] was 3.26 µM; in assay [2], 4.08 µM; in assay [3], 3.97 µM; in assay [4] it was 5.27 µM; in assay [5], 4.31 µM; in [6], 2.44 µM. For the same compound, the GI50 is 3.84 µM in [8], 1.25 µM in [9] and 6.48 µM in assay [10]. In addition, the TGI in assay [1] is 44 µM; in [2], above 100 µM; in [3], above 100 µM; in assay [4] it was above 100 µM; in assay [5] it was above 100 µM; in assay [6] it was 23.6 µM. The TGI in [8], in assay [9] and in assay [10] was above 100 µM in each case.

`O=C(CSC(c1ccccc1)c1ccccc1)N/N=C/c1cccc(Cl)c1`: the GI50 in [1] is 18.6 µM; in assay [2], 17.6 µM; in assay [3], 19.1 µM; in [4] it was 17.3 µM; in [7] it was 13 µM; in assay [8] it was 16.4 µM. Besides, the GI50 is 19.6 µM in [9] and 13.7 µM in [10]. In addition, the TGI in assay [1] worked out at 32.6 µM; in [2] it was 39.6 µM; in assay [3], 43.2 µM; in assay [4], 32.7 µM; in assay [7], 26.1 µM; in [8], 30 µM. Besides, the TGI is 38.6 µM in assay [9] and 26.6 µM in assay [10].

For the compound `CC(=O)c1c(C)n(C)c2c1nnc1ccccc12`, the TGI in assay [1], in [2], in assay [4], in [5], in [6] and in assay [7] was above 100 µM each time. The TGI in [8], in [9] and in assay [10] was above 100 µM each time.

Consider `COC1CCC(O)C(/C=C/[N+](=O)[O-])C1` (stereo unspecified), for which the TGI in assay [1] is 3.14 µM; in assay [2] it was 4.69 µM; in [3], 6.55 µM; in assay [4], 3.67 µM; in assay [5], 23.6 µM; in [6] it was 22.6 µM. Besides, the values for the TGI in assay [8], in [9] and in assay [10] were 15.2 µM, 4.69 µM and 29.9 µM, respectively.
